Where a name gives a salt, the structure may show the parent alone.
SMILES: COc1ccc(CNc2nc(CCC(=O)O)nc3sc4c(c23)CCCC4)cc1Cl (as salt: salt) [Example 2, 3-[4-(3-chloro-4-methoxybenzylamino)-5,6,7,8-tetrahydro-[1]-benzothieno-[2,3-d]-pyrimidin-2-yl]propionic acid]
- melting point: 229 °C

Reference: patent US20040034040A1, “Use of thienopyrimidines” (priority 2000, published 2004)
